Where “and” joins values, the source holds several entries; their conditions need not be identical. Equal entries are not always repeated.
Tested on: Balb/c mice
Assay: Prevention of glucocorticoid (betamethasone)-induced dermal atrophy in normal mice, dermis thickness in Van Gieson stained biopsies
Format: in vivo, mouse
Conditions: for Thickness of dermis (mm) in 5 low power fields (×10) / Thickness of dermis, mean (mm): one week
Text: Normal Balb/c mice were used for the experiments. […] Therefore each averaged measurement represents 25 determinations.
In FIGS. 1-3, the arrows show the dermal layer which is predominantly collagen fibers.

[1] = Bet. 0.2 mM + 0.0008 mM test compound, topical daily
[2] = Bet. 0.2 mM + 0.008 mM test compound, topical daily
[3] = Bet. 0.2 mM + 0.08 mM test compound, topical daily
[4] = Bet. 0.2 mM + 0.8 mM test compound, topical daily

Compound	Thickness of dermis (mm) in 5 low power fields (×10) [1]	Thickness of dermis, mean (mm) [1]	Thickness of dermis (mm) in 5 low power fields (×10) [2]	Thickness of dermis, mean (mm) [2]	Thickness of dermis (mm) in 5 low power fields (×10) [3]	Thickness of dermis, mean (mm) [3]	Thickness of dermis (mm) in 5 low power fields (×10) [4]	Thickness of dermis, mean (mm) [4]	Thickness of dermis (mm) in 5 low power fields (×10) (0.8 mM test compound alone (no betamethasone))	Appearance of dermis in biopsy micrograph (FIG. 3) (Triac alone for one week)	Concentration at which the effect on betamethasone-induced atrophy saturates (range 0.0008 to 8 mM)	Thickness of dermis, mean (mm) (Bet. 0.2 mM + placebo cr. (hydrophilic cream))	Thickness of dermis (mm) in 5 low power fields (×10) (Bet. 0.2 mM + placebo cr. (hydrophilic cream), listed as Bet.)	Thickness of dermis, mean (mm) (Betamethasone 0.2 mM alone, 100 μl topical daily)	Appearance of dermis in biopsy micrograph (FIG. 1) (betamethasone alone for one week)
CC(C)c1cc(Oc2c(Br)cc(Cc3nnn[nH]3)cc2Br)ccc1O [KB-067, 4-[2,6-dibromo-4-(1H-tetrazol-5-ylmethyl)-phenoxy]-2-isopropyl-phenol]	0.42 mm and 0.39 mm and 0.40 mm	0.40 mm	0.40 mm and 0.39 mm and 0.41 mm	0.40 mm	0.40 mm and 0.41 mm and 0.39 mm	0.40 mm	0.45 mm and 0.46 mm and 0.47 mm and 0.48 mm	0.46 mm							
O=C(O)Cc1cc(I)c(Oc2ccc(O)c(I)c2)c(I)c1 [TriAc, [4-(4-hydroxy-3-iodophenoxy)-3,5-diiodophenyl]acetic acid]	0.40 mm and 0.36 mm and 0.38 mm	0.38 mm	0.40 mm and 0.44 mm	0.45 mm					0.72 mm and 0.82 mm and 0.84 mm and 0.76 mm	very dense and thicker than that shown in FIG. 2	approximately 0.8 mM				
O=C(O)CCc1cc(I)c(Oc2ccc(O)c(I)c2)c(I)c1 [TriProp]	0.41 mm and 0.40 mm and 0.46 mm	0.42 mm	0.45 mm and 0.50 mm and 0.40 mm and 0.42 mm and 0.48 mm	0.45 mm	0.50 mm and 0.48 mm and 0.47 mm and 0.44 mm	0.48 mm	0.50 mm and 0.45 mm and 0.47 mm and 0.48 mm and 0.52 mm	0.48 mm							
C[C@H]1C[C@H]2[C@@H]3CCC4=CC(=O)C=C[C@]4(C)[C@@]3(F)[C@@H](O)C[C@]2(C)[C@@]1(O)C(=O)CO [Betamethasone, betamethasone, reference compound]												0.40 mm	0.40 mm and 0.42 mm and 0.38 mm and 0.39 mm	0.37 mm and 0.42 mm	very thinned
OCc1cc(I)c(Oc2ccc(O)c(I)c2)c(I)c1 [KB-026, 4-(4-hydroxymethyl-2,6-diiodophenoxy)-2-iodo-phenol]	0.40 mm and 0.41 mm and 0.42 mm	0.41 mm	0.45 mm and 0.42 mm and 0.46 mm and 0.44 mm	0.44 mm	0.44 mm and 0.50 mm and 0.49 mm and 0.46 mm	0.48 mm	0.50 mm and 0.52 mm and 0.48 mm and 0.51 mm	0.50 mm							

— US6380255B1, “Treatment for dermal skin atrophy using thyroid hormone compounds or thyroid hormone-like compounds” (Karo Bio AB, priority 1995, dated 2002)
